Data on 3 compounds can be found in PMC13313556, “Development and characterization of triazole-based WDR5 inhibitors for the treatment of glioblastoma” (JCI Insight, 2026).

In one data set the test system is L0 CSCs. The data set is described as follows: 7-day CTG viability assay (GI50, cross-titrations) in L0. It counts as cell-based. As to conditions: Homo sapiens; L0, 7-day CTG; pGI50 = −log10[GI50(M)]. As to the method:
(§1) For GI50 determination, compounds were stamped in technical triplicate, while for synergy cross-titrations dose-response matrices were prepared in technical duplicate. Different CSC lines, grown in suspension as spheroids, were split with Accutase and seeded directly on top of the prestamped compounds (50 μL of NBMc and 700 cells/well). The outer 4 rows (A,B and O,P row IDs) and 4 columns (1,2 and 23,24 column IDs) were filled with 80 μL of PBS to minimize evaporation. Cells were incubated with compounds for 7 days at 37°C/5% CO2 prior to the addition of 25 μL/well Cell-Titer Glo (Promega) and luminescence quantification on a Revvity EnVision plate reader. […] For the cross-titrations of 2 compounds, synergy scores were calculated using the MuSyC webserver ([79]).

The next data set relates to DI318 CSCs. Nature of the data set: 7-day CTG viability assay (GI50, cross-titrations, irradiation) in DI318. In kind it is cell-based. The conditions noted are these: Homo sapiens. The procedure:
as §1, with “([79]). […]” for “([79]).”
(§2) antagonist (p53 activator) RG7112 following either 0 Gy or 2 Gy irradiation. Mean values are presented from a single biological replicate conducted in technical triplicate. Follow- […]
(§3) Cell viability was quantified as described in the Materials and Methods four days post-irradiation (seven days total). The

Data set [1] is described as follows: Plasma protein binding (equilibrium dialysis), human. It counts as in vitro ADME. The procedure: Plasma Protein and Brain Homogenate Binding: Plasma protein binding assays in human and rat plasma were performed using equilibrium dialysis method and a fast gradient elution LC-MS/MS to estimate the percent of compound which binds to protein over a 4.5 hour incubation period at 37 °C, while undergoing orbital shaking. Assay was performed using a HT dialysis micro equilibrium device using dialysis membrane strips. A time 0 sample was taken after protein matrix is created and samples were taken from […]
both the protein side and buffer side of the membrane after incubation and the parent compound was quantified. Brain homogenate binding was performed similarly as above using human brain homogenate, equilibrium dialysis, and LC-MS/MS methods. Fraction unbound is calculated by dividing the concentration of the buffer side by the concentration of the matrix side (plasma or brain). […]

A short description of data set [2]: MDCK passive permeability. It counts as in vitro ADME, canine. The conditions noted are these: dog, MDCK.
For another data set, the system named is 3832 CSCs. Nature of the data set: 7-day CTG viability assay (GI50, cross-titrations, irradiation) in 3832. In kind it is cell-based, human. As to the method:
as §1, with “([79]). […]” for “([79]).”
as §2, §3

Data set [3] is described as follows: Microsomal intrinsic clearance, rat. The conditions noted are these: for CLint scaled at 1 µM: pooled liver microsomes, rat microsomes; for Pred CLhep (r): scaled predicted hepatic clearance, rat. In kind it is in vitro ADME. The procedure: (§4) SUPPLEMENTAL DMPK METHODS
(§5) All in vitro DMPK screening assays were performed at Q2 Solutions, Inc. (Indianapolis,
(§6) IN, USA). Microsomal Intrinsic Clearance: Test compounds (1 µM) were incubated
(§7) with 1 mg/mL of pooled liver microsomes in phosphate buffer at 37 °C. Samples were
(§8) taken at 0, 5, 10, 15, 30 and 45 min and analyzed by LC-MS. Testosterone was used as
(§9) the positive control. Two replicates were obtained and average CLint values are reported. […]

The nature of data set [4]: Microsomal intrinsic clearance, human. It counts as in vitro ADME. The conditions noted are these: for CLint scaled at 1 µM: pooled liver microsomes, human microsomes; for Pred CLhep (h): scaled predicted hepatic clearance, human. The procedure: as §4, §5, §6, §7, §8, §9
A further data set concerns L2 CSCs. The data set is described as follows: 7-day CTG viability assay (GI50, cross-titrations, irradiation) in L2. The conditions noted are these: for GI50: Homo sapiens. It counts as cell-based, human. The procedure: as §1, with “([79]). […]” for “([79]).”
as §2, §3

A short description of data set [5]: In vivo intraperitoneal plasma:brain level (PBL) studies. Further details: species or system mice. The conditions noted are these: for Kp: male. The procedure: In Vivo Intraperitoneal Plasma:Brain Level (PBL) Studies
Core (RMPC) at the Vanderbilt University Medical Center (VUMC) Metabolic Physiology Shared Resource Core (MPSR). The studies were performed according to guidelines […]
approved by the Institutional Animal Care and Use Committee (IACUC) of VUMC following the guidance of the Association for Assessment and Accreditation of Laboratory Animal Care (AAALAC). Male CD-1 mice (Charles River Laboratories, Wilmington, MA) were overnight fasted on the evening prior to study. On the morning of study mice were weighed and allowed to acclimate to the room for at least 30 minutes prior to dosing.
Food was returned 3 hr after intraperitoneal dosing. At time zero IP of test article was given (20% β-HPCD, 1-10 mg/mL with addition of 1N HCl per molar equivalent of test article, N=8 mice, two per timepoint). At 0.5, 1, 3, and 6 h post-dose, mice were placed into a plane of anesthesia using Isoflurane. A terminal blood sample was collected via cardiac puncture followed by immediate euthanasia and brain collection. Brain was washed with cold PBS or Saline, blotted dry on a piece of gauze, weighed, and flash frozen in liquid nitrogen. Whole blood was centrifuged at 5000 x g for 5 minutes and plasma was removed into a fresh tube for storage. All samples were stored at -80 °C until shipment on dry ice for bioanalysis at Q2 Solutions. […]
conducted at Medicilon Inc. DMPK (CRO, Shanghai) using a similar protocol as above using modified timepoints (5 min, 15 min, 30 min, 1, 3, and 8 h), male ICR mice, and a […]
cyclodextrin). The blood was taken via submandibular vein or other suitable vein, 0.03 mL/time point. Samples were placed in tubes containing K2-EDTA and stored on ice until centrifuged. The blood samples were centrifuged at 6800 x g for 6 minutes at 2-8°C within 1h after collection and stored frozen at -80°C. After blood sample collection, the brain was removed, rinsed with saline, dried with filter paper, placed into labeled EP tubes (1 tube/tissue/animal/time point, and frozen at -80°C prior to bioanalysis. The analytical […]
results were validated using a calibration curve to lower limit of quantification of 2 ng/mL for parent analyte with tolbutamide as an internal standard. […]

Setting [6] is: DI318 + RAD (2 Gy), read-out: log(GI50) (converted).
The mark [7] stands for this setting: […], DI318, 7-day CTG, pGI50 = −log10[GI50(M)], read-out: pGI50 (converted).
Where [8] appears, read: human plasma, read-out: PPB % fu (h).
Where [9] appears, read: summary of Table 1, read-out: free fraction.
Where [10] appears, read: Homo sapiens, 3832 + RAD (2 Gy), read-out: log(GI50) (converted).
The mark [11] stands for this setting: Homo sapiens, 3832, 0 Gy, read-out: log(GI50) (converted).
[12] abbreviates: Homo sapiens, […], 3832, 7-day CTG, pGI50 = −log10[GI50(M)], read-out: pGI50 (converted).
Setting [13] is: L2, 7-day CTG, pGI50 = −log10[GI50(M)], read-out: pGI50 (converted).
The mark [14] stands for this setting: CD-1 (C3TD343), ICR (C3TD078), mouse, brain, intraperitoneal, 100 mg/kg, 100 mg/kg i.p., mice, read-out: P:B.
Setting [15] is: L2, 0 Gy, read-out: log(GI50) (converted).

Read-outs that look alike come from different tables or passages of the source.

With `COc1cc(Cn2nnc3c2CCc2c-3cc(Cn3ccnc3C)cc2C2CC2)ccc1F` [C3TD343], the GI50 is 5.5e-06 M in the data set on L0 CSCs; 6.31e-06 M in the data set on DI318 CSCs (setting [6]); 5.01e-06 M with DI318 CSCs (setting [7]); 3.16e-06 M in the data set with 3832 CSCs (setting [10]); 3.16e-06 M in the data set on 3832 CSCs (setting [11]); 2.51e-06 M in the data set with 3832 CSCs (setting [12]). The GI50 with L2 CSCs (L2 + RAD (2 Gy), read-out: log(GI50) (converted)) was 7.94e-06 M; with L2 CSCs (setting [13]), 6.31e-06 M. In addition, the fraction unbound at […] in [1] (setting [8]) was 0.007; in data set [1] (setting [9]) it was ~0.02. Besides, the Papp A→B in data set [2] is 5.2 ×10⁻⁶ cm/s; in data set [2] (favorable permeability), > 2 ×10⁻⁶ cm/s. Further, the intrinsic clearance (CLint scaled) at 1 µM in data set [3] worked out at 378 mL/min/kg; in [4], 710 mL/min/kg. For the same compound, the “Pred CLhep (r)” value in data set [3] is listed as 64.1 mL/min/kg. In addition, in [4], the “Pred CLhep (h)” value was 20.3 mL/min/kg. Further, in [5] (100 mg/kg i.p., mice), the “total brain AUC” value was 2.9 µM·h. The “total brain Cmax” value in data set [5] (100 mg/kg i.p., mice) worked out at 2.4 µM. For the same compound, in [5] (i.p., mice), the “duration of brain exposure” value was “less than 4 hours”. The Kp in data set [5] (setting [14]) is 0.25.

Turning to `COc1cc(CN2CCc3c(cc(Cn4ccn(C)c4=N)cc3-c3ccc(F)cc3C)C2=O)cc(OC)c1` [C16, reference compound], the GI50 with L0 CSCs was 5.01e-07 M; in the data set on DI318 CSCs (setting [6]), 7.94e-07 M; with DI318 CSCs (DI318, 0 Gy, read-out: log(GI50) (converted)), 2e-06 M; in the data set with DI318 CSCs (setting [7]), 1.58e-06 M; in the data set on 3832 CSCs (setting [11]) it was 1e-06 M; with 3832 CSCs (Homo sapiens, 3832, 7-day CTG, pGI50 = −log10[GI50(M)], read-out: pGI50 (converted)), 8.32e-07 M. Also, the GI50 with L2 CSCs (setting [15]) was 2e-06 M; in the data set on L2 CSCs (setting [13]), 3.98e-06 M. The fraction unbound at […] in data set [1] (setting [8]) was 0.003; in data set [1] (summary of Table 1, read-out: plasma protein binding) it was < 0.01. The same compound had a Papp A→B in [2] of 0.1 ×10⁻⁶ cm/s. Moreover, the figures for the “log(GI50)” value in the data set on 3832 CSCs (3832 + RAD (2 Gy)) and in the data set on L2 CSCs (L2 + RAD (2 Gy)) were -6.0 M and -5.7 M, respectively. Moreover, the CLint scaled at 1 µM was < 9.2 mL/min/kg in [3] and 155 mL/min/kg in [4]. Besides, in data set [3], the “Pred CLhep (r)” value is < 14.7 mL/min/kg. Besides, the “Pred CLhep (h)” value in data set [4] was 18.3 mL/min/kg. In addition, the Cmax brain in data set [5] (10 mg/kg IP, male mice) came to 0.102 µM. Also, the AUC brain in data set [5] (10 mg/kg IP, male mice, 6 hrs interval) was 0.357 µM·h. The Tmax is 30 min in data set [5] (CD-1, mouse, brain, 10 mg/kg IP, male mice, read-out: Tmax brain) and 30 min in data set [5] (CD-1, mouse, plasma, 10 mg/kg IP, male mice, read-out: Tmax plasma). The maximum concentration (Cmax) in [5] (CD-1, mouse, plasma, 10 mg/kg IP, male mice) came to 14.2 µM. The compound further gave an AUC in data set [5] (CD-1, mouse, plasma, 10 mg/kg IP, male mice, 6 hrs interval) of 11.9 µM·h. Also, the Kp in data set [5] (CD-1, mouse, brain, ip, 10 mg/kg, C16 10 mg/kg IP, male mice, read-out: brain/plasma ratio P:B (AUC)) was < 0.05.

Take `COc1cc(Cn2nnc3c2CCc2c(-c4cn(C)nc4C(F)(F)F)cc(Cn4ccnc4C)cc2-3)cc(OC)c1` [C3TD078]: the GI50 with L0 CSCs was 1.26e-06 M; in the data set on DI318 CSCs (setting [6]), 6.31e-07 M; with DI318 CSCs (setting [7]), 2e-06 M; in the data set with 3832 CSCs (setting [10]), 1.26e-06 M; with 3832 CSCs (setting [12]) it was 2e-06 M; in the data set on L2 CSCs (setting [15]) it was 5.01e-06 M. Further, in the data set with L2 CSCs (setting [13]), the GI50 is 3.98e-06 M. Further, the fraction unbound at […] in [1] (setting [8]) is 0.016; in data set [1] (setting [9]), ~0.02. Further, the results for the Papp A→B in data set [2] and in [2] (favorable permeability) were 4.9 ×10⁻⁶ cm/s and > 2 ×10⁻⁶ cm/s, respectively. Moreover, the intrinsic clearance (CLint scaled) at 1 µM in [3] was 316 mL/min/kg; in data set [4], 1200 mL/min/kg. Further, the “Pred CLhep (r)” value in [3] is reported as 63.1 mL/min/kg. Also, the “Pred CLhep (h)” value in data set [4] is reported as 20.6 mL/min/kg. Besides, in data set [5] (setting [14]), the Kp is < 0.05.
